{
  "source": "ChEMBL document CHEMBL1127231",
  "about": "“The isolation and in vivo Potent Antitumor activity of clerodane diterpenoid from the oleoresin of the brazilian medicinal plant, copaifera langsdorfi desfon” (1994)",
  "assay_type_in_all_cases": "functional",
  "key": {"[1]": {"test_system": "Mus musculus", "test": "Antitumor activity was evaluated by the change in body weight against IMC carcinoma in mice at a dose of 41.1 mg/kg"}, "[2]": {"test_system": "Mus musculus", "test": "Antitumor activity was evaluated by the increase in life span (I.L.S) against IMC carcinoma in mice at a dose of 41.1 mg/kg"}, "[3]": {"test_system": "Mus musculus", "test": "Antitumor activity was evaluated by the change in life span (day) against IMC carcinoma in mice at a dose of 41.1 mg/kg"}, "[4]": {"test_system": "Mus musculus", "test": "Antitumor activity was evaluated by the change in body weight against IMC carcinoma in mice at a dose of 77.6 mg/kg"}, "[5]": {"test_system": "Mus musculus", "test": "Antitumor activity was evaluated by the increase in life span (I.L.S) against IMC carcinoma in mice at a dose of 77.6 mg/kg"}, "[6]": {"test_system": "Mus musculus", "test": "Antitumor activity was evaluated by the change in life span (day) against IMC carcinoma in mice at a dose of 77.6 mg/kg"}, "[7]": {"test_system": "Mus musculus", "test": "Antitumor activity was evaluated by the increase in life span (I.L.S) against IMC carcinoma in mice at a dose of 30.0 mg/kg"}, "[8]": {"test_system": "Mus musculus", "test": "Antitumor activity was evaluated by the change in life span (day) against IMC carcinoma in mice at a dose of 30.0 mg/kg"}, "[9]": {"test_system": "Mus musculus", "test": "Antitumor activity was evaluated by the change in body weight against IMC carcinoma in mice at a dose of 30.0 mg/kg"}, "[10]": {"test_system": "Mus musculus", "test": "Antitumor activity was evaluated by the change in body weight against IMC carcinoma in mice at a dose of 0.27 mg/kg"}, "[11]": {"test_system": "Mus musculus", "test": "Antitumor activity was evaluated by the increase in life span (I.L.S) against IMC carcinoma in mice at a dose of 0.27 mg/kg"}, "[12]": {"test_system": "Mus musculus", "test": "Antitumor activity was evaluated by the change in life span (day) against IMC carcinoma in mice at a dose of 0.27 mg/kg"}, "[13]": {"test_system": "Mus musculus", "test": "Antitumor activity was evaluated by the change in body weight against IMC carcinoma in mice at a dose of 20.7 mg/kg"}, "[14]": {"test_system": "Mus musculus", "test": "Antitumor activity was evaluated by the increase in life span (I.L.S) against IMC carcinoma in mice at a dose of 20.7 mg/kg"}, "[15]": {"test_system": "Mus musculus", "test": "Antitumor activity was evaluated by the change in life span (day) against IMC carcinoma in mice at a dose of 20.7 mg/kg"}, "[16]": {"test_system": "Mus musculus", "test": "Antitumor activity was evaluated by the change in body weight against IMC carcinoma in mice at a dose of 9.0 mg/kg"}, "[17]": {"test_system": "Mus musculus", "test": "Antitumor activity was evaluated by the increase in life span (I.L.S) against IMC carcinoma in mice at a dose of 9.0 mg/kg"}, "[18]": {"test_system": "Mus musculus", "test": "Antitumor activity was evaluated by the change in life span (day) against IMC carcinoma in mice at a dose of 9.0 mg/kg"}, "[19]": {"test_system": "Mus musculus", "test": "Antitumor activity was evaluated by the change in body weight against IMC carcinoma in mice at a dose of 1.8 mg/kg"}, "[20]": {"test_system": "Mus musculus", "test": "Antitumor activity was evaluated by the increase in life span (I.L.S) against IMC carcinoma in mice at a dose of 1.8 mg/kg"}, "[21]": {"test_system": "Mus musculus", "test": "Antitumor activity was evaluated by the change in life span (day) against IMC carcinoma in mice at a dose of 1.8 mg/kg"}},
  "data": [
    {"smiles": "CC1=CCC[C@@H]2[C@@](C)(CC/C(C)=C/CO)[C@H](C)CC[C@@]12C", "values": [
      {"measurement": "Change in body weight", "setting": "[1]", "value": 0.1, "unit": "g"},
      {"measurement": "ILS at 41.1 mg/kg", "setting": "[2]", "value": 98, "unit": "%"},
      {"measurement": "Life span", "setting": "[3]", "value": 25.2, "unit": "days"}
    ]},
    {"smiles": "C[C@H]1CC[C@]2(C)C(C(=O)O)=CCC[C@H]2[C@]1(C)CCc1ccoc1", "values": [
      {"measurement": "Change in body weight", "setting": "[4]", "value": 1.6, "unit": "g"},
      {"measurement": "ILS at 77.6 mg/kg", "setting": "[5]", "value": 17, "unit": "%"},
      {"measurement": "Life span", "setting": "[6]", "value": 14.8, "unit": "days"}
    ]},
    {"smiles": "O=c1[nH]cc(F)c(=O)[nH]1", "note": "[FLUOROURACIL]", "values": [
      {"measurement": "ILS at 30 mg/kg", "setting": "[7]", "value": 46, "unit": "%"},
      {"measurement": "Life span", "setting": "[8]", "value": 18.5, "unit": "days"},
      {"measurement": "Change in body weight", "setting": "[9]", "value": -1.8, "unit": "g"}
    ]},
    {"smiles": "C=C1CCC[C@@H]2[C@](C)(CC/C(C)=C/CO)[C@@H](C)CC[C@]12C", "values": [
      {"measurement": "Change in body weight", "setting": "[10]", "value": 1.9, "unit": "g"},
      {"measurement": "ILS at 0.27 mg/kg", "setting": "[11]", "value": -8, "unit": "%"},
      {"measurement": "Life span", "setting": "[12]", "value": 11.7, "unit": "days"}
    ]},
    {"smiles": "C=C1CC[C@@H]2C(C)(C)CCC[C@@]2(C)[C@@H]1CC/C(C)=C/C(=O)O", "note": "[COPALIC ACID]", "values": [
      {"measurement": "Change in body weight", "setting": "[13]", "value": 1.5, "unit": "g"},
      {"measurement": "ILS at 20.7 mg/kg", "setting": "[14]", "value": 10, "unit": "%"},
      {"measurement": "Life span", "setting": "[15]", "value": 14, "unit": "days"}
    ]},
    {"smiles": "C=C1CC[C@H]2C(C)(C)CCC[C@]2(C)[C@H]1CC/C(C)=C/CO", "values": [
      {"measurement": "Change in body weight", "setting": "[16]", "value": 1.4, "unit": "g"},
      {"measurement": "ILS at 9 mg/kg", "setting": "[17]", "value": 2, "unit": "%"},
      {"measurement": "Life span", "setting": "[18]", "value": 13, "unit": "days"}
    ]},
    {"smiles": "CC1=CCC[C@@H]2[C@@](C)(CC/C(C)=C/CO)[C@H](C)CC[C@]12C", "values": [
      {"measurement": "Change in body weight", "setting": "[19]", "value": 1.4, "unit": "g"},
      {"measurement": "ILS at 1.8 mg/kg", "setting": "[20]", "value": -3, "unit": "%"},
      {"measurement": "Life span", "setting": "[21]", "value": 12.3, "unit": "days"}
    ]}
  ]
}
